One compound from PMC7486443, “Generation of Phenothiazine with Potent Anti-TLK1 Activity for Prostate Cancer Therapy” (iScience, 2020) can be followed below.

Targets include BLK (Homo sapiens, UniProt P51451); CHEK1 (Homo sapiens, UniProt O14757); EPHA6 (Homo sapiens, UniProt Q9UF33); FGFR3 (Homo sapiens, UniProt P22607); KIT(V559D) (Homo sapiens, UniProt P10721, V559D); LYN (Homo sapiens, UniProt P07948); MAP3K1 (Homo sapiens, UniProt Q13233); PRKG2 (Homo sapiens, UniProt Q13237); ROCK1 (Homo sapiens, UniProt Q13464); TNK2 (Homo sapiens, UniProt Q07912).

What all share (assay): biochemical
Common to all, as to design: DiscoverX KINOMEscan scanMAX competition binding panel, single concentration, percent of control; remaining binding: dose or concentration left out as unconfirmed
What all share (conditions): KINOMEscan binding, percent of control; read-out: Table S4_SCANMAX REPORT - related to Fig. 1 / Percent Control

Another experiment has as its target T1, DRAK2 (Homo sapiens, UniProt O94768).
T1 construct: gene STK17B

In a further experiment the target is T2, ERK2 (Homo sapiens, UniProt P28482).
T2 construct: gene MAPK1

A further experiment has as its target T3, ERK4 (Homo sapiens, UniProt P31152).
T3 construct: gene MAPK4

A further experiment has as its target T4, ICK (Homo sapiens, UniProt Q9UPZ9).
T4 construct: gene CILK1

The next experiment deals with T5, IKK-beta (Homo sapiens, UniProt O14920).
T5 construct: gene IKBKB

Another experiment deals with T6, MEK3 (Homo sapiens, UniProt P46734).
T6 construct: gene MAP2K3

In another experiment the target is T7, MEK5 (Homo sapiens, UniProt Q13163).
T7 construct: gene MAP2K5

In a further experiment the target is T8, TRKC (Homo sapiens, UniProt Q16288).
T8 construct: gene NTRK3
T8 sequence (Q16288 whole entry): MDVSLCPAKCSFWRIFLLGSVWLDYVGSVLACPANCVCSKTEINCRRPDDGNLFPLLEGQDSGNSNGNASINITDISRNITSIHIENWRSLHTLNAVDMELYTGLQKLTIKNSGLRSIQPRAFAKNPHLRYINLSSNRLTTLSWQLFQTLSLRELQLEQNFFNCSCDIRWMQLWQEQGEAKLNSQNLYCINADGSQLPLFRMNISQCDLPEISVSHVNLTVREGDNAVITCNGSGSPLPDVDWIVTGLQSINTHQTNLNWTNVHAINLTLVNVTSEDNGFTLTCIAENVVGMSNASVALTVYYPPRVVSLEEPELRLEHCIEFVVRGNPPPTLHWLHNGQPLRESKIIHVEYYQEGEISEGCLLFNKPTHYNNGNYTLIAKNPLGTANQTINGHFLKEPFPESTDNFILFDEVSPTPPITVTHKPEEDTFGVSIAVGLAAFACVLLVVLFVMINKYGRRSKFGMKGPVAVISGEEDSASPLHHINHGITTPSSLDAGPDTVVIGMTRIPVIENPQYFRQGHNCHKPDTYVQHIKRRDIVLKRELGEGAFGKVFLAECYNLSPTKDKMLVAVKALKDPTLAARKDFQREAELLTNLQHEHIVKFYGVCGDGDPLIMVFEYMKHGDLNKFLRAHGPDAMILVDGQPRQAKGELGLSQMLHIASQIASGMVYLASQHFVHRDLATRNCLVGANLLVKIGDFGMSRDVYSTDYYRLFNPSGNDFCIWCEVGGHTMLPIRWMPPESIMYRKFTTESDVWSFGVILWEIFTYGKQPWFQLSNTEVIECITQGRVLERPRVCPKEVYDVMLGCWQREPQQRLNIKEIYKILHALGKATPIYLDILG

The target of another experiment is T9, p38-beta (Homo sapiens, UniProt Q15759).
T9 construct: gene MAPK11

Sequence of MAP3K1 (Q13233 whole entry): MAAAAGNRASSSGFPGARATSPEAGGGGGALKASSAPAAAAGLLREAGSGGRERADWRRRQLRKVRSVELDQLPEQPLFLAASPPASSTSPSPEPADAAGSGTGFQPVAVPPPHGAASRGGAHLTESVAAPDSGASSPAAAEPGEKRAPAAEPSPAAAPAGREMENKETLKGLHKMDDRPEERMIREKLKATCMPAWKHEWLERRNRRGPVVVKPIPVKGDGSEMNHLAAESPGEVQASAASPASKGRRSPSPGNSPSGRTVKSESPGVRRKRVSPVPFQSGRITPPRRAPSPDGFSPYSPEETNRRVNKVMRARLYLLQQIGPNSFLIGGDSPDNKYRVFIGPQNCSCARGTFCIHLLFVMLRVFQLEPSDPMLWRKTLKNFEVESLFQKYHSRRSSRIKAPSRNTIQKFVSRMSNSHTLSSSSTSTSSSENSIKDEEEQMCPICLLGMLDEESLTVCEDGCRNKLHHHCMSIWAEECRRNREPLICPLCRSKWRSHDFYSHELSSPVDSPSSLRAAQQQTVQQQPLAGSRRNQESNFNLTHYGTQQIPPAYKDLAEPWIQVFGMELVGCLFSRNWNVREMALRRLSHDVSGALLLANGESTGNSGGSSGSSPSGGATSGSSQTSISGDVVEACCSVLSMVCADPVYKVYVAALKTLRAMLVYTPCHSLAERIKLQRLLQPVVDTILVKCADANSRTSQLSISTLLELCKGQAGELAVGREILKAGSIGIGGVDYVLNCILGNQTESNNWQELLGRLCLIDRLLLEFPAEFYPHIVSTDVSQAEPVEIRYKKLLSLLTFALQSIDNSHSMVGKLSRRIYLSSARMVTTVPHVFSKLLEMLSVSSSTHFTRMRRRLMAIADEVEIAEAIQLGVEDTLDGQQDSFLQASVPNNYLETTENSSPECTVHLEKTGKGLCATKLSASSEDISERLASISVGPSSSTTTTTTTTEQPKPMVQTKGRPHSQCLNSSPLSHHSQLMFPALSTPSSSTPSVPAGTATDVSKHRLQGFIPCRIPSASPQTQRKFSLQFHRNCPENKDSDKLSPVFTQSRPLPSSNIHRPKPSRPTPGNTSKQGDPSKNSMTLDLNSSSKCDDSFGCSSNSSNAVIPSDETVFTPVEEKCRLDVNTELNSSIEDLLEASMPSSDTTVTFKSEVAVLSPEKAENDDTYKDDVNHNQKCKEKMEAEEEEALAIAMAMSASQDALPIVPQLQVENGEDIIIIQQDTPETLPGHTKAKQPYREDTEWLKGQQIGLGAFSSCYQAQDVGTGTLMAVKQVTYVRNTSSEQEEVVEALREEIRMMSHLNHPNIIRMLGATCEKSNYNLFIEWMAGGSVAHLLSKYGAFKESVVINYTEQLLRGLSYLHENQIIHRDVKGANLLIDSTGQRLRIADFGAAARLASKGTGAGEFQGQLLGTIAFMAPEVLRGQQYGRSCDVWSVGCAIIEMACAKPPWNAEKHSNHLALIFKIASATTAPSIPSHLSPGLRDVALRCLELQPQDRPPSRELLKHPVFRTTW
Sequence of KIT(V559D) (P10721 whole entry V559D): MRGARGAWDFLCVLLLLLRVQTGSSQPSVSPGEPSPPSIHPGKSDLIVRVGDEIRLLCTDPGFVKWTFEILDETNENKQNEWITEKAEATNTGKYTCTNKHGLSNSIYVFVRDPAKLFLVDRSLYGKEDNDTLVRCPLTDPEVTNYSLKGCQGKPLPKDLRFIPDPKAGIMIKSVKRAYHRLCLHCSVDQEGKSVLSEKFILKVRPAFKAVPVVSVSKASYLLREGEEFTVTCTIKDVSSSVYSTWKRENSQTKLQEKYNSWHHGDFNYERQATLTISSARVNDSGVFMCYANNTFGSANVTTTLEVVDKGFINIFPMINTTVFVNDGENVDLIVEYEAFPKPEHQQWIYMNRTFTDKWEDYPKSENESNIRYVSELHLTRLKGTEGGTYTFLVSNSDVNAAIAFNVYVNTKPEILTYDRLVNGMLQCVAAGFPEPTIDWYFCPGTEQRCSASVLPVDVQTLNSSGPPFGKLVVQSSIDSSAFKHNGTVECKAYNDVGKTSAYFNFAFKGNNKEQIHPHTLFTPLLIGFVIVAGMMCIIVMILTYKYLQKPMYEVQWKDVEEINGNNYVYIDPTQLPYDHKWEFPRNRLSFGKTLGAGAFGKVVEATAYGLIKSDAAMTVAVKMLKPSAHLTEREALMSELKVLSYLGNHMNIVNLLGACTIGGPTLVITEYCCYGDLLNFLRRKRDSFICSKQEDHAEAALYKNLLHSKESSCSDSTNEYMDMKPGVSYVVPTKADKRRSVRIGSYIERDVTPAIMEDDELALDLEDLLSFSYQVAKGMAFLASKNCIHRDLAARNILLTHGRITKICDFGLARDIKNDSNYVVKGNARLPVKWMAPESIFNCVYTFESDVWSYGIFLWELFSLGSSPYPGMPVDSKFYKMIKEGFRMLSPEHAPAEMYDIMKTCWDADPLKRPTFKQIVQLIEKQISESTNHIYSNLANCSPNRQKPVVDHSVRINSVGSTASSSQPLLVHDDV
Sequence of PRKG2 (Q13237 whole entry): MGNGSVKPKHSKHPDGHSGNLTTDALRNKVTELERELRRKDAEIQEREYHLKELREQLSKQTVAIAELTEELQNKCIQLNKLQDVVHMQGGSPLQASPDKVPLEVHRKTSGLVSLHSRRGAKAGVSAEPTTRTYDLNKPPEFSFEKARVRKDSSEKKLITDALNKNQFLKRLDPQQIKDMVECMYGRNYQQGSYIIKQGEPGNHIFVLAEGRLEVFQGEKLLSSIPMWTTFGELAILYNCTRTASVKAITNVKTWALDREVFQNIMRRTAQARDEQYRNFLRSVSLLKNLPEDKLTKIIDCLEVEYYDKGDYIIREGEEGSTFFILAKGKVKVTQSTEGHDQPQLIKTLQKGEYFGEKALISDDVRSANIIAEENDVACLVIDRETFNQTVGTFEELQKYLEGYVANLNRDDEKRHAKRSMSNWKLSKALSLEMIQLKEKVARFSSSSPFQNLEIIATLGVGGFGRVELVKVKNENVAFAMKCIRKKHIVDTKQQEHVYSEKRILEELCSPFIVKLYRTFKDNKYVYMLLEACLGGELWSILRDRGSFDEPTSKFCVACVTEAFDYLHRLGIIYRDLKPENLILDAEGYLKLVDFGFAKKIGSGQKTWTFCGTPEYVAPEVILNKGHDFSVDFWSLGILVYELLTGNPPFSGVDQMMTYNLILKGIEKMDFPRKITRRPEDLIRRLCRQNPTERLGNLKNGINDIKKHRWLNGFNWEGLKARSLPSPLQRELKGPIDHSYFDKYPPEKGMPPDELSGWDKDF
Sequence of LYN (P07948 whole entry): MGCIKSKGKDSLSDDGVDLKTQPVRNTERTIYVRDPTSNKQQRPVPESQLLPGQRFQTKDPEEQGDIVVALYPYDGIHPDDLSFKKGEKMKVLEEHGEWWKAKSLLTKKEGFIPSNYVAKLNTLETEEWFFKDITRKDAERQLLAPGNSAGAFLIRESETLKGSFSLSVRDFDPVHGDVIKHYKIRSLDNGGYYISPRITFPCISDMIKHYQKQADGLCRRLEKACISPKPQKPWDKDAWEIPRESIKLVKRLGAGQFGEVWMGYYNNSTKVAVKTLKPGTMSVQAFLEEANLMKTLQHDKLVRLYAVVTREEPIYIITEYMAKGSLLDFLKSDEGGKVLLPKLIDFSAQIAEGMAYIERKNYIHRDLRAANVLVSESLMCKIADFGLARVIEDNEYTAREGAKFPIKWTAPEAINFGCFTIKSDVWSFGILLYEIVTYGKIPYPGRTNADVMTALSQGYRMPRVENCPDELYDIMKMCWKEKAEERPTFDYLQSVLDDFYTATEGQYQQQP
T1 sequence (O94768 whole entry): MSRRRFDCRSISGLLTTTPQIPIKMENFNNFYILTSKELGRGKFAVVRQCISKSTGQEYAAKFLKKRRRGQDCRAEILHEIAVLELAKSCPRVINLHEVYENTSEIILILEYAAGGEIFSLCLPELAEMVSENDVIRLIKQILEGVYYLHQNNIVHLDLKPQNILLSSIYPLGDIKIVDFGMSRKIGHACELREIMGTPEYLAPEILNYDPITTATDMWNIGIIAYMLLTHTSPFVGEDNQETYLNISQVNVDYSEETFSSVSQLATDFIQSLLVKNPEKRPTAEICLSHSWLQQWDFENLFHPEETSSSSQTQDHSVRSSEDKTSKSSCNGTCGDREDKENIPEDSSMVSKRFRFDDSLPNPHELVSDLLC

With `c1ccc2c(c1)Sc1ccccc1N2CCN1CCOCC1` [J54], the remaining binding on BLK is 60%; on CHEK1, 100%; at DRAK2, 83%; on EPHA6, 100%; at ERK2, 97%; on ERK4, 100%. Further, the remaining binding on FGFR3 came to 97%; at ICK it was 100%; on IKK-beta it was 100%; on KIT(V559D), 100%; at LYN it was 98%; on MAP3K1 it was 100%. Besides, the remaining binding on MEK3 is 100%; at MEK5, 95%; on PRKG2 it was 99%; at ROCK1, 100%; on TNK2, 100%; on TRKC, 81%. For the same compound, at p38-beta, the remaining binding turned out to be 100%.
